Where “and” joins values, the source holds several entries; their conditions need not be identical. Equal values may be shown once. Inconclusive results and toxic doses are left out. Rule for the calls: active = survival T/C of 150% or more; inactive = T/C below 125% in these data.
System: CD2F1 mice, L1210 leukemia ip, survival T/C
Test: NCI In Vivo Anticancer Drug Screen. Data for tumor model L1210 Leukemia (intraperitoneal) in CD2F1 (CDF1) mice
Settings: endpoint: mean survival time, higher = longer survival
How it was run: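 Vehicle-treated tumor-bearing mice served as controls (C) for compound-treated mice (T). Reported figure is T divided by C.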

[1] = dose: 12.5 mg/kg/injection, schedule: Q01DX009 (ip), vehicle: saline
[2] = dose: 25.0 mg/kg/injection, schedule: Q01DX009 (ip), vehicle: saline with Tween-80
[3] = dose: 25.0 mg/kg/injection, schedule: Q01DX009 (ip), vehicle: saline
[4] = dose: 50.0 mg/kg/injection, schedule: Q01DX009 (ip), vehicle: saline with Tween-80
[5] = dose: 50.0 mg/kg/injection, schedule: Q01DX009 (ip), vehicle: saline
[6] = dose: 100.0 mg/kg/injection, schedule: Q01DX009 (ip), vehicle: saline with Tween-80
[7] = dose: 100.0 mg/kg/injection, schedule: Q01DX009 (ip), vehicle: saline
[8] = dose: 200.0 mg/kg/injection, schedule: Q01DX009 (ip), vehicle: saline with Tween-80
[9] = dose: 200.0 mg/kg/injection, schedule: Q01DX009 (ip), vehicle: saline
[10] = dose: 400.0 mg/kg/injection, schedule: Q01DX009 (ip), vehicle: saline with Tween-80
[11] = dose: 75.0 mg/kg/injection, schedule: Q01DX001 (ip), vehicle: other
[12] = dose: 150.0 mg/kg/injection, schedule: Q01DX001 (ip), vehicle: other
[13] = dose: 300.0 mg/kg/injection, schedule: Q01DX001 (ip), vehicle: other
[14] = dose: 100.0 mg/kg/injection, schedule: Q04DX003 (ip), vehicle: saline with Tween-80
[15] = dose: 200.0 mg/kg/injection, schedule: Q04DX003 (ip), vehicle: saline with Tween-80
[16] = dose: 400.0 mg/kg/injection, schedule: Q04DX003 (ip), vehicle: saline with Tween-80
[17] = dose: 100.0 mg/kg/injection, schedule: Q04DX002 (ip), vehicle: saline

Measured: T/C

O=Cc1ccc(O)c(O)c1
inactive: [1] 93 % of control | [2] 106 % of control | [3] 98 % of control | [4] 106 % of control | [5] 98 % of control | [6] 114 % of control and 102 % of control | [7] 107 % of control | [8] 109 % of control | [9] 116 % of control | [10] 117 % of control

COc1ccc2c(O)c3[n+](cc2c1OC)CCc1cc2c(cc1-3)OCO2
inactive: [11] 100 % of control | [12] 87 % of control | [13] 100 % of control

CCOC(=O)CCC(NC(=O)c1ccc(NCc2ccc3nc(N)nc(N)c3c2C)cc1)C(=O)OCC (configuration not stated)
inactive: dose: 0.01 mg/kg/injection, schedule: Q01DX009 (ip), vehicle: saline + alcohol 104 % of control | dose: 0.02 mg/kg/injection, schedule: Q01DX009 (ip), vehicle: saline + alcohol 116 % of control | dose: 0.03 mg/kg/injection, schedule: Q01DX009 (ip), vehicle: saline + alcohol 113 % of control | dose: 0.06 mg/kg/injection, schedule: Q01DX001 (ip), vehicle: saline + alcohol 98 % of control and 101 % of control | dose: 0.06 mg/kg/injection, schedule: Q01DX009 (ip), vehicle: saline + alcohol 113 % of control | dose: 0.11 mg/kg/injection, schedule: Q01DX009 (ip), vehicle: saline + alcohol 110 % of control | dose: 0.12 mg/kg/injection, schedule: Q01DX001 (ip), vehicle: saline + alcohol 112 % of control | dose: 0.13 mg/kg/injection, schedule: Q01DX001 (ip), vehicle: saline + alcohol 104 % of control | dose: 0.25 mg/kg/injection, schedule: Q01DX001 (ip), vehicle: saline + alcohol 121 % of control and 111 % of control | dose: 1.0 mg/kg/injection, schedule: Q01DX001 (ip), vehicle: saline + alcohol 122 % of control

CC1(C)N=C(N)N=C(N)N1c1cccc(CCC(=O)Nc2ccc(S(=O)(=O)F)cc2)c1
inactive: [5] 100 % of control | [7] 102 % of control | [9] 105 % of control | dose: 300.0 mg/kg/injection, schedule: Q01DX009 (ip), vehicle: saline 105 % of control | dose: 400.0 mg/kg/injection, schedule: Q01DX009 (ip), vehicle: saline 108 % of control

CN[C@H]1CCc2cc(OC)c(OC)c(OC)c2-c2ccc(SC)c(=O)cc21
inactive: dose: 12.5 mg/kg/injection, schedule: Q01DX001 (ip), vehicle: Klucel (hydroxypropylcellulose) (HPC) 104 % of control | dose: 25.0 mg/kg/injection, schedule: Q01DX001 (ip), vehicle: Klucel (hydroxypropylcellulose) (HPC) 106 % of control | dose: 50.0 mg/kg/injection, schedule: Q01DX001 (ip), vehicle: Klucel (hydroxypropylcellulose) (HPC) 102 % of control

Cc1ccc(N=C(C(=Nc2ccc(C)cc2)c2ccccc2)c2ccccc2)cc1
inactive: [8] 101 % of control | [10] 92 % of control

NC(C1SCCS1)C(O)C(O)C(O)CO (configuration not stated)
inactive: [14] 101 % of control | [15] 104 % of control | [16] 98 % of control

COC(=O)CCC(=O)N1C=Cc2ccccc2C1C#N (configuration not stated)
inactive: [6] 98 % of control | [14] 95 % of control | [8] 102 % of control | [15] 95 % of control | [10] 102 % of control | [16] 90 % of control

CCNC1=CC(=O)CC(C)(C)C1
inactive: dose: 75.0 mg/kg/injection, schedule: Q01DX001 (ip), vehicle: saline 106 % of control | dose: 150.0 mg/kg/injection, schedule: Q01DX001 (ip), vehicle: saline 101 % of control | dose: 300.0 mg/kg/injection, schedule: Q01DX001 (ip), vehicle: saline 109 % of control

C1=CC(=P(c2ccccc2)(c2ccccc2)c2ccccc2)C=C1
inactive: [6] 98 % of control | [14] 94 % of control | [8] 100 % of control | [15] 95 % of control | dose: 240.0 mg/kg/injection, schedule: Q01DX015 (ip), vehicle: saline 87 % of control | [10] 94 % of control | [16] 94 % of control | dose: 480.0 mg/kg/injection, schedule: Q01DX015 (ip), vehicle: saline 87 % of control | dose: 960.0 mg/kg/injection, schedule: Q01DX015 (ip), vehicle: saline 92 % of control

O=C1OC(OC(=O)c2ccccc2)C(Nc2ccccc2)=C1Br (configuration not stated)
inactive: [6] 101 % of control | [8] 101 % of control | [10] 97 % of control

O=C(SCc1ccccc1)c1cccnc1
inactive: dose: 6.25 mg/kg/injection, schedule: Q01DX009 (ip), vehicle: saline 98 % of control | [1] 98 % of control | [2] 94 % of control | [3] 98 % of control | [4] 96 % of control | [6] 92 % of control

CNc1nc(N)nc(CN2CCOCC2c2ccccn2)n1 (configuration not stated)
inactive: [17] 88 % of control | dose: 200.0 mg/kg/injection, schedule: Q04DX002 (ip), vehicle: saline 114 % of control | dose: 400.0 mg/kg/injection, schedule: Q04DX002 (ip), vehicle: saline 96 % of control

CNNC(=O)OC
inactive: dose: 25.0 mg/kg/injection, schedule: Q04DX002 (ip), vehicle: saline 95 % of control | dose: 50.0 mg/kg/injection, schedule: Q04DX002 (ip), vehicle: saline 98 % of control | [17] 121 % of control and 109 % of control

O=c1[nH]cnc2n[nH]nc12
inactive: dose: 12.5 mg/kg/injection, schedule: Q01DX009 (ip), vehicle: Klucel (hydroxypropylcellulose) (HPC) 116 % of control | dose: 25.0 mg/kg/injection, schedule: Q01DX009 (ip), vehicle: Klucel (hydroxypropylcellulose) (HPC) 119 % of control | [11] 103 % of control | [12] 108 % of control | [13] 108 % of control

NC(CC(=O)NC(=O)OCc1ccccc1)C(=O)O (configuration not stated)
inactive: [6] 100 % of control | [14] 101 % of control | [8] 102 % of control | [15] 101 % of control | [10] 102 % of control | [16] 98 % of control

CCN(CC)C1=C(C)S(=O)(=O)C1c1ccc(C)cc1 (configuration not stated)
inactive: [4] 102 % of control | dose: 100.0 mg/kg/injection, schedule: Q01DX001 (ip), vehicle: saline 97 % of control | [6] 98 % of control | dose: 100.0 mg/kg/injection, schedule: Q04DX003 (ip), vehicle: saline 103 % of control | dose: 200.0 mg/kg/injection, schedule: Q01DX001 (ip), vehicle: saline 97 % of control | [8] 98 % of control | dose: 200.0 mg/kg/injection, schedule: Q04DX003 (ip), vehicle: saline 109 % of control | dose: 400.0 mg/kg/injection, schedule: Q01DX001 (ip), vehicle: saline 97 % of control | dose: 400.0 mg/kg/injection, schedule: Q04DX003 (ip), vehicle: saline 100 % of control

NC(CCC(=O)NCc1ccc(S(=O)(=O)F)cc1)C(=O)O (configuration not stated)
inactive: [5] 92 % of control | [7] 96 % of control | [9] 92 % of control

Source: PubChem BioAssay AID256 (DTP/NCI, 2004)
